Test results as given in ChEMBL document CHEMBL4350990, “Benzensulfonamides bearing spyrohydantoin moieties act as potent inhibitors of human carbonic anhydrases II and VII and show neuropathic pain attenuating effects” (Eur J Med Chem, 2019).
Calls of active or inactive are those of the source. The rule behind the calls is not given here.

What was measured:
Carbonic anhydrase 12 = Carbonic anhydrase 12 (Homo sapiens, UniProt O43570); test: Inhibition of human carbonic anhydrase 12 incubated for 15 mins prior to testing by stopped-flow CO2 hydration assay
Carbonic anhydrase 12, sequence (O43570 whole entry): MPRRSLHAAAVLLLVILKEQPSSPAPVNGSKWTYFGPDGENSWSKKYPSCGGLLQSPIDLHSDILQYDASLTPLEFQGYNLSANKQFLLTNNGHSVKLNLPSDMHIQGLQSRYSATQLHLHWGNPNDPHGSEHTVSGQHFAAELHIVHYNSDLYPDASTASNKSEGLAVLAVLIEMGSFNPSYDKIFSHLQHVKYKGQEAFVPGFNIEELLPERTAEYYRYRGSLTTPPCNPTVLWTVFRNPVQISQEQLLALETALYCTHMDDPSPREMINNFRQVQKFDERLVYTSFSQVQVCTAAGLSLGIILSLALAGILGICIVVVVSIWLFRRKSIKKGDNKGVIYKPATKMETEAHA

Carbonic anhydrase 9 = Carbonic anhydrase 9 (Homo sapiens, UniProt Q16790); test: Inhibition of human carbonic anhydrase 9 incubated for 15 mins prior to testing by stopped-flow CO2 hydration assay
Carbonic anhydrase 4 = Carbonic anhydrase 4 (Homo sapiens, UniProt P22748); test: Inhibition of human carbonic anhydrase 4 incubated for 15 mins prior to testing by stopped-flow CO2 hydration assay
Carbonic anhydrase 4, sequence (P22748 whole entry): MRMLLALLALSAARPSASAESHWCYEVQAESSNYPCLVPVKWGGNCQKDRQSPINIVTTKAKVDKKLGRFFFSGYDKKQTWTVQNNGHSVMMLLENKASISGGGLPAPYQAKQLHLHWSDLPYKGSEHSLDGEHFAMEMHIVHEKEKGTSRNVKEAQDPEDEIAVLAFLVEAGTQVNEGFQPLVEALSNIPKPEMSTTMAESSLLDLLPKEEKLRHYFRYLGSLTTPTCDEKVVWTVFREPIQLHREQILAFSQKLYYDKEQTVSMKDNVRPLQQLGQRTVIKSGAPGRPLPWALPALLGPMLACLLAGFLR

Carbonic anhydrase 7 = Carbonic anhydrase 7 (Homo sapiens, UniProt P43166); test: Inhibition of human carbonic anhydrase 7 incubated for 15 mins prior to testing by stopped-flow CO2 hydration assay
Carbonic anhydrase 7, sequence (P43166 whole entry): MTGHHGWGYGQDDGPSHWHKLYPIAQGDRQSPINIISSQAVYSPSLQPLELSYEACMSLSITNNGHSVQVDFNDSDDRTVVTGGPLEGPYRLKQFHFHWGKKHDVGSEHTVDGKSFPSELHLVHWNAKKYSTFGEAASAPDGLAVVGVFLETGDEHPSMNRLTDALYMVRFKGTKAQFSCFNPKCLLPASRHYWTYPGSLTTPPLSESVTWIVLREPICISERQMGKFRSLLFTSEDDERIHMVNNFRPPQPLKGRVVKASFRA

Carbonic anhydrase 13 = Carbonic anhydrase 13 (Homo sapiens, UniProt Q8N1Q1); test: Inhibition of human carbonic anhydrase 13 incubated for 15 mins prior to testing by stopped-flow CO2 hydration assay
Carbonic anhydrase 13, sequence (Q8N1Q1 whole entry): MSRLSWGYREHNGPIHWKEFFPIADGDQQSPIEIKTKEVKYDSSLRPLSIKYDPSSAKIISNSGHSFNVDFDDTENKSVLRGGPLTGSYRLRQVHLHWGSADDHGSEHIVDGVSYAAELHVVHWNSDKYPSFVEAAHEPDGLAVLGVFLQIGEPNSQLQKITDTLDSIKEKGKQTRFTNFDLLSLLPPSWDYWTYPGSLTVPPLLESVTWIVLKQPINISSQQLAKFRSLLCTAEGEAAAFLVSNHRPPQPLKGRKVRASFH

[1] = target: Carbonic anhydrase 5B, mitochondrial (Homo sapiens, UniProt Q9Y2D0); test: Inhibition of human carbonic anhydrase 5B incubated for 15 mins prior to testing by stopped-flow CO2 hydration assay
Carbonic anhydrase 5B, mitochondrial, sequence (Q9Y2D0 whole entry): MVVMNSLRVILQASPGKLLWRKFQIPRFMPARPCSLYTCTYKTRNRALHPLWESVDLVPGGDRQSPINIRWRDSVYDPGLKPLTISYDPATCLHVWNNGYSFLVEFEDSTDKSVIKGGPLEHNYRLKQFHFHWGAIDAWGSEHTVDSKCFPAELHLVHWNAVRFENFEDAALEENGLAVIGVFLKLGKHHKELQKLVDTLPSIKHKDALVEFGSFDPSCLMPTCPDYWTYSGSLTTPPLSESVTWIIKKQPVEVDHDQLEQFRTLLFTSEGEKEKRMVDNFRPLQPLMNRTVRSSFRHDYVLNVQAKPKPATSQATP

Carbonic anhydrase 6 = Carbonic anhydrase 6 (Homo sapiens, UniProt P23280); test: Inhibition of human carbonic anhydrase 6 incubated for 15 mins prior to testing by stopped-flow CO2 hydration assay
Carbonic anhydrase 6, sequence (P23280 whole entry): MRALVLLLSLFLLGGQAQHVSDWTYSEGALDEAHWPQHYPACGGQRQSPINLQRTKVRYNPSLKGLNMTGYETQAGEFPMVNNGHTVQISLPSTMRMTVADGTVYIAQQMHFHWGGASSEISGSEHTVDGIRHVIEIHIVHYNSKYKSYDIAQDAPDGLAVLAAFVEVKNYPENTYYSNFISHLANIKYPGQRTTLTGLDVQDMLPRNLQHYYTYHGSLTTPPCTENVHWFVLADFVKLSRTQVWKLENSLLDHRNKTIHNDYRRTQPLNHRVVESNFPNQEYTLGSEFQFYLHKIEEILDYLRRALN

Carbonic anhydrase 3 = Carbonic anhydrase 3 (Homo sapiens, UniProt P07451); test: Inhibition of human carbonic anhydrase 3 incubated for 15 mins prior to testing by stopped-flow CO2 hydration assay
Carbonic anhydrase 3, sequence (P07451 whole entry): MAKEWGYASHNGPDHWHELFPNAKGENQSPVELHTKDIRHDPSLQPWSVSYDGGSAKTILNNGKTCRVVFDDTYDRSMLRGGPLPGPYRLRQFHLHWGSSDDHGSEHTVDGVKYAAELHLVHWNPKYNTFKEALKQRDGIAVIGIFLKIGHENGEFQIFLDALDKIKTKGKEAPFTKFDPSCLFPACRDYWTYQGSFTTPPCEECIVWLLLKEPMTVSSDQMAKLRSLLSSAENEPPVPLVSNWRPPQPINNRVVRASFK

Carbonic anhydrase 1 = Carbonic anhydrase 1 (Homo sapiens, UniProt P00915); test: Inhibition of human carbonic anhydrase 1 incubated for 15 mins prior to testing by stopped-flow CO2 hydration assay
Carbonic anhydrase 1, sequence (P00915 whole entry): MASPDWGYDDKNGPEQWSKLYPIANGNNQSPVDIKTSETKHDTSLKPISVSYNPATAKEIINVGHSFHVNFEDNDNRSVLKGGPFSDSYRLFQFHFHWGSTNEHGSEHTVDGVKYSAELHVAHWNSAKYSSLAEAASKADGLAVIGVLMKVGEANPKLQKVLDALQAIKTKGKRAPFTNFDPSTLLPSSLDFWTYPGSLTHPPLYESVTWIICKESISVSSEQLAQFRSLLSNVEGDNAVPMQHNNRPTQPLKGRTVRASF

[2] = target: Carbonic anhydrase 5A, mitochondrial (Homo sapiens, UniProt P35218); test: Inhibition of human carbonic anhydrase 5A incubated for 15 mins prior to testing by stopped-flow CO2 hydration assay
Carbonic anhydrase 5A, mitochondrial, sequence (P35218 whole entry): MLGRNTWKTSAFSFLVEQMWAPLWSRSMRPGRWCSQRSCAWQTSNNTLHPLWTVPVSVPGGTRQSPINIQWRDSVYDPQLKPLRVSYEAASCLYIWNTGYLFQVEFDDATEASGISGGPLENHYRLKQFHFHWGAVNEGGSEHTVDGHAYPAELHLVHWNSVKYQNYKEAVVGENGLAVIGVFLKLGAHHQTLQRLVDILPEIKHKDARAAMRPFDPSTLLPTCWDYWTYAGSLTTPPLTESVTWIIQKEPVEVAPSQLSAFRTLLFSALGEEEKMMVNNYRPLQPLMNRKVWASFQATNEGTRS

Carbonic anhydrase 2 = Carbonic anhydrase 2 (Homo sapiens, UniProt P00918); test: Inhibition of human carbonic anhydrase 2 incubated for 15 mins prior to testing by stopped-flow CO2 hydration assay
Mus musculus [3] = test: Analgesic activity in oxaliplatin-induced neuropathic pain CD-1 albino mouse model assessed as decrease in pain-related behaviour measured as licking latency at 100 mg/kg, po treated on day 15 post oxaliplatin treatment and measured after 45 mins by cold plate test; assay type: functional, organism-based
Mus musculus [4] = test: Analgesic activity in oxaliplatin-induced neuropathic pain CD-1 albino mouse model assessed as licking latency at 30 to 100 mg/kg, po treated on day 15 post oxaliplatin treatment by cold plate test; assay type: functional, organism-based
Mus musculus [5] = test: Analgesic activity in oxaliplatin-induced neuropathic pain CD-1 albino mouse model assessed as decrease in pain-related behaviour measured as licking latency at 100 mg/kg, po treated on day 15 post oxaliplatin treatment and measured after 45 to 60 mins by cold plate test; assay type: functional, organism-based
Mus musculus [6] = test: Analgesic activity in orally dosed oxaliplatin-induced neuropathic pain CD-1 albino mouse model assessed as decrease in pain-related behaviour measured as licking latency treated on day 15 post oxaliplatin treatment by cold plate test; assay type: functional, organism-based

Row | Ki (Carbonic anhydrase 12) | Ki (Carbonic anhydrase 9) | Ki (Carbonic anhydrase 4) | Ki (Carbonic anhydrase 7) | Ki (Carbonic anhydrase 13) | Ki [1] | Ki (Carbonic anhydrase 6) | Ki (Carbonic anhydrase 3) | Ki (Carbonic anhydrase 1) | Ki [2] | Ki (Carbonic anhydrase 2) | SMILES | Activity (Mus musculus [3]) | Activity (Mus musculus [4]) | Activity (Mus musculus [5]) | Activity (Mus musculus [6])
1 | 0.0623 µM | 0.0035 µM |  | 0.0037 µM | > 10 µM |  |  |  | 0.649 µM |  | 0.0471 µM | NS(=O)(=O)c1ccc(CNC(=O)CN2C(=O)NC3(CCCCCC3)C2=O)cc1 |  |  |  | 
2 | 0.728 µM | 0.105 µM |  | 0.0054 µM | > 10 µM |  |  |  | 0.47 µM |  | 0.0207 µM | NS(=O)(=O)c1ccc(CNC(=O)CN2C(=O)NC3(CCCCC3)C2=O)cc1 |  |  |  | 
3 | 0.0096 µM | 0.093 µM |  | 0.0036 µM | 2.17 µM |  |  |  | 2.77 µM |  | 0.0015 µM | NS(=O)(=O)c1ccc(CNC(=O)CN2C(=O)NC3(CCCC3)C2=O)cc1 |  |  |  | 
4 | 0.0866 µM | 0.0767 µM | 8.01 µM | 0.0069 µM | 7.41 µM | 7.32 µM | > 10 µM | > 10 µM | 0.626 µM | 0.534 µM | 0.0071 µM | NS(=O)(=O)c1ccc(CCNC(=O)CN2C(=O)NC3(CCCCC3)C2=O)cc1 |  |  |  | 
5 | 0.0629 µM | 0.0331 µM | 6.49 µM | 0.0051 µM | > 10 µM | > 10 µM | > 10 µM | > 10 µM | 0.491 µM | 6.18 µM | 0.00071 µM | NS(=O)(=O)c1ccc(CCNC(=O)CN2C(=O)NC3(CCCCCC3)C2=O)cc1 |  |  |  | 

More lines, now with the values behind:

Row | SMILES | Ki (Carbonic anhydrase 12) | Ki (Carbonic anhydrase 9) | Ki (Carbonic anhydrase 4) | Ki (Carbonic anhydrase 7) | Ki (Carbonic anhydrase 13) | Ki [1] | Ki (Carbonic anhydrase 6) | Ki (Carbonic anhydrase 3) | Ki (Carbonic anhydrase 1) | Ki [2] | Ki (Carbonic anhydrase 2) | Activity (Mus musculus [3]) | Activity (Mus musculus [4]) | Activity (Mus musculus [5]) | Activity (Mus musculus [6])
6 | CC1CCCC2(C1)NC(=O)N(CC(=O)NCCc1ccc(S(N)(=O)=O)cc1)C2=O (stereo not given) | 0.0834 µM | 0.477 µM | 7.19 µM | 0.003 µM | > 10 µM | > 10 µM | > 10 µM | > 10 µM | 0.306 µM | 8.68 µM | 0.0007 µM |  |  |  | 
7 | CC1CCCC2(C1)NC(=O)N(CC(=O)Nc1ccc([Se]Cc3ccc(S(N)(=O)=O)cc3)cc1)C2=O (stereo not given) | 0.0086 µM | 0.0178 µM |  | 0.0047 µM | 0.767 µM |  |  |  | 0.0623 µM |  | 0.0007 µM | Active |  |  | 
8 | CC1CCCC2(C1)NC(=O)N(CC(=O)Nc1ccc(S(N)(=O)=O)cc1)C2=O (stereo not given) | 0.0397 µM | 0.0026 µM |  | 0.0015 µM | 5.78 µM |  |  |  | 0.0803 µM |  | 0.0008 µM |  |  |  | 
9 | NS(=O)(=O)c1ccc(CCNC(=O)CN2C(=O)NC3(CCCC3)C2=O)cc1 | 0.0062 µM | 0.122 µM | 9.66 µM | 0.0047 µM | > 10 µM | > 10 µM | > 10 µM | > 10 µM | 6.33 µM | 3.94 µM | 0.0069 µM |  |  |  | 
10 | CC1CCCC2(C1)NC(=O)N(CC(=O)NCc1ccc(S(N)(=O)=O)cc1)C2=O (stereo not given) | 0.0333 µM | 0.229 µM |  | 0.0044 µM | > 10 µM |  |  |  | 0.853 µM |  | 0.0083 µM |  |  |  | 
11 | NS(=O)(=O)c1ccc(C[Se]c2ccc(NC(=O)CN3C(=O)NC4(CCCCCC4)C3=O)cc2)cc1 | 0.0494 µM | 0.0064 µM |  | 0.0047 µM | 0.0884 µM |  |  |  | 0.384 µM |  | 0.0228 µM | Active |  |  | 
12 | NS(=O)(=O)c1ccc(NC(=O)CN2C(=O)NC3(CCCCC3)C2=O)cc1 | 0.0466 µM | 0.0033 µM |  | 0.0013 µM | 0.809 µM |  |  |  | 0.0075 µM |  | 0.0031 µM |  | inactive |  | 
13 | NS(=O)(=O)c1ccc(NC(=O)CN2C(=O)NC3(CCCC3)C2=O)cc1 | 0.0537 µM | 0.0119 µM |  | 0.0008 µM | > 10 µM |  |  |  | 0.141 µM |  | 0.0007 µM |  |  | Active | Dose-dependent effect
14 | NS(=O)(=O)c1ccc(C[Se]c2ccc(NC(=O)CN3C(=O)NC4(CCCCC4)C3=O)cc2)cc1 | 0.0041 µM | 0.0033 µM |  | 0.0002 µM | > 10 µM |  |  |  | 0.0636 µM |  | 0.0196 µM |  |  |  | 
15 | NS(=O)(=O)c1ccc(NC(=O)CN2C(=O)NC3(CCCCCC3)C2=O)cc1 | 0.0428 µM | 0.0043 µM |  | 0.0008 µM | > 10 µM |  |  |  | 0.237 µM |  | 0.0012 µM |  |  |  | 
